Patent US7851436B2, “Inhibition of migration and induction of cell death by the type II collagen amino propeptides” (Washington University, priority 2007, dated 2010)

Key:
[1] = tested on: Ch-1 cell adhesion to PIIBNP; test: Inhibition of Ch-1 cell adhesion to PIIBNP by synthetic blocking peptides and integrin antibodies; type: cell-based, human
Description: (§1) Cell Adhesion Assay. Cell adhesion assays were performed using a spectrometric method. A 96-well plate was coated at 4° C. overnight with recombinant proteins. Wells were washed three times with RPMI-1640 medium containing 10% FBS. Ch-1 cells were harvested with limited trypsin digestion and plated at 5×10^4 cells per well in RPMI-1640 medium supplemented with 10% FBS for an hours. Proteins were added and incubation continued for 1 hour. The wells were washed three times with pre-warmed PBS to remove non-adherent cells. The adherent cells were fixed with 4% paraformaldehyde in PBS for 10 minutes at room temperature and stained with 0.5% toluidine blue for 5 minutes. The wells were rinsed with water and cells were solubilized with 0.1% SDS. Absorbance at 595 nm was recorded on a SpectraMax plate reader. Synthetic blocking peptides and antibodies to αVβ3 and αVβ5 integrin were pre-incubated with cells for 15 to 30 mins before they were added onto the wells in the inhibition assays.
Antibodies. Monoclonal antibodies used for blocking experiments were: mouse anti αVβ3 and αVβ5 integrins (Chemicon). Polyclonal antibodies for immunohistochemistry and western blotting were rabbit anti human αV, α2, α3, α5, β1, β3, β5 integrin, goat anti human actin (Santa Cruz), mouse anti exon 2, rabbit anti GSTexon 2, and chicken anti PIIBNP (antiserum made in our lab).

[2] = target: T1, αVβ3 integrin (Homo sapiens, UniProt P05106+P06756); test: Cell surface labeling and GST pull-down with immunoblotting; type: binding; conditions: biotin-labeled Ch-1 membrane proteins, Western blot
T1 construct: Ch-1 membrane proteins were labeled with biotin, and PIIBNP was used to isolate the integrin molecules; endogenous in cells; host or cells: Ch-1 human chondrosarcoma cells (surface-biotinylated, lysed)
T1 sequence (P06756 31-889 limits assumed): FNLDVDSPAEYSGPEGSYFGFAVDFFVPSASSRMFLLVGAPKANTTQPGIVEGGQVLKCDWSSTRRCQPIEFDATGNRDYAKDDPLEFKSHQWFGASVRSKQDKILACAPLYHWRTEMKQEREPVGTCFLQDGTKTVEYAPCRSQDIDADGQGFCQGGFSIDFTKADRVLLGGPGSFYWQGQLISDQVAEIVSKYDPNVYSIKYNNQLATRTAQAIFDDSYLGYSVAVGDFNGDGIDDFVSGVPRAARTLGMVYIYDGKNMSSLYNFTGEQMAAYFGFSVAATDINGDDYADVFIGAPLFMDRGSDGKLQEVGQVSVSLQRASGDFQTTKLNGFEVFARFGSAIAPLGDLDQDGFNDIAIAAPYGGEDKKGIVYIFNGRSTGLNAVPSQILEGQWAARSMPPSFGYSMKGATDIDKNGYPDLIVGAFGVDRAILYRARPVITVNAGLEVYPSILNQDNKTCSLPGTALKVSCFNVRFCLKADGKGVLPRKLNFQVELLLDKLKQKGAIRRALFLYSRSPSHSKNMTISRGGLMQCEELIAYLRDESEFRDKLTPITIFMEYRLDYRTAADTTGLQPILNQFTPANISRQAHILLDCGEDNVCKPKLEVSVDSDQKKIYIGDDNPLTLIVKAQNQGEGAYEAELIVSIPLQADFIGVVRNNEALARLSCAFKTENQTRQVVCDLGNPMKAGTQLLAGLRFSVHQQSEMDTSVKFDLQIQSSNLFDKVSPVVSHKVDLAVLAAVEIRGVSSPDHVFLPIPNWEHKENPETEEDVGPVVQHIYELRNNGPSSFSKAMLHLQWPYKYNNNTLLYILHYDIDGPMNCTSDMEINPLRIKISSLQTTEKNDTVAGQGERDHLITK
T1 sequence (P06756 891-1048 limits assumed): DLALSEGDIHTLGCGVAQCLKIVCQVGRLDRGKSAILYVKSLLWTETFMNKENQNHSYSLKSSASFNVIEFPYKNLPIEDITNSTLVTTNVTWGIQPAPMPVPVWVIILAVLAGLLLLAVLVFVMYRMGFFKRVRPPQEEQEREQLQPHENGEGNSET
T1 sequence (P05106 27-788): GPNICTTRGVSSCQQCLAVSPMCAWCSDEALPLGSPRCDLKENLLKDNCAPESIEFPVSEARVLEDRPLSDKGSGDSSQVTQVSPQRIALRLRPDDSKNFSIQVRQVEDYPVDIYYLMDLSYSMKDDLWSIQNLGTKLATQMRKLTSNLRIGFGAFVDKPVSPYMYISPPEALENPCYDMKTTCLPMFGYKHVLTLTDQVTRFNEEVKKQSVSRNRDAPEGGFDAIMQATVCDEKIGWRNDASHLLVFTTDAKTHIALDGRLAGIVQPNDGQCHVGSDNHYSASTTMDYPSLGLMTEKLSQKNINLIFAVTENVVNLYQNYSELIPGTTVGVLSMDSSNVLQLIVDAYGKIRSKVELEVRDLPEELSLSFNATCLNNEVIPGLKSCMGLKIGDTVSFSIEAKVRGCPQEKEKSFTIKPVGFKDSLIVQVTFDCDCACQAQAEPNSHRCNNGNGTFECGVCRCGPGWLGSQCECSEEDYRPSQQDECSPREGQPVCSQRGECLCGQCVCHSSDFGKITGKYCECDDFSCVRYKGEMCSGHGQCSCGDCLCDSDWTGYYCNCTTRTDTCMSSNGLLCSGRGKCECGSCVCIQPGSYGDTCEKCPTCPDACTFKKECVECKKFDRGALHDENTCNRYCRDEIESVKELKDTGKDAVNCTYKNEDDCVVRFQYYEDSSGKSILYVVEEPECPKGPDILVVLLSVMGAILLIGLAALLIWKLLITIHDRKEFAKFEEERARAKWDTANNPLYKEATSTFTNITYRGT
Description: (§2) Immunoblotting. Western blotting was performed as described (7). Blots were probed with the following primary antibodies: rabbit anti αV, α2, α3, α5, β1, β3, β5 integrin and goat anti actin (Saint Cruz), chicken anti PIIBNP antiserum, and mouse anti exon 2 antiserum.
(§3) Cell Surface labeling and GST Pull-down Assay. Ch-1 cells were incubated with EZ-link Sulfo-NHS-Biotin reagent for 30 mins. according to the product instruction (Sigma). After 3 washes with 0.1 M glycine in PBS, the cells were lysed with a lysis buffer described above. The lysate was incubated with glutathione derivatized agarose beads previously bound with GST, PIIANP, PIIBNP or mPIIBNP for 1 hr. at RT. […] The membrane was washed and incubated with antibodies and then incubated with a secondary antibody coupled to horseradish peroxidase. The antibody complex was visualized by enhanced chemiluminescence.

[3] = target: T2, αVβ5 integrin (Homo sapiens, UniProt P06756+P18084); test: as above; type: binding; conditions: biotin-labeled Ch-1 membrane proteins, Western blot
T2 construct: Ch-1 membrane proteins were labeled with biotin, and PIIBNP was used to isolate the integrin molecules; endogenous in cells; host or cells: Ch-1 human chondrosarcoma cells (surface-biotinylated, lysed)
T2 sequence (P06756 31-889 limits assumed): as the sequence (P06756 31-889 limits assumed) above
T2 sequence (P06756 891-1048 limits assumed): as the sequence (P06756 891-1048 limits assumed) above
T2 sequence (P18084 24-799): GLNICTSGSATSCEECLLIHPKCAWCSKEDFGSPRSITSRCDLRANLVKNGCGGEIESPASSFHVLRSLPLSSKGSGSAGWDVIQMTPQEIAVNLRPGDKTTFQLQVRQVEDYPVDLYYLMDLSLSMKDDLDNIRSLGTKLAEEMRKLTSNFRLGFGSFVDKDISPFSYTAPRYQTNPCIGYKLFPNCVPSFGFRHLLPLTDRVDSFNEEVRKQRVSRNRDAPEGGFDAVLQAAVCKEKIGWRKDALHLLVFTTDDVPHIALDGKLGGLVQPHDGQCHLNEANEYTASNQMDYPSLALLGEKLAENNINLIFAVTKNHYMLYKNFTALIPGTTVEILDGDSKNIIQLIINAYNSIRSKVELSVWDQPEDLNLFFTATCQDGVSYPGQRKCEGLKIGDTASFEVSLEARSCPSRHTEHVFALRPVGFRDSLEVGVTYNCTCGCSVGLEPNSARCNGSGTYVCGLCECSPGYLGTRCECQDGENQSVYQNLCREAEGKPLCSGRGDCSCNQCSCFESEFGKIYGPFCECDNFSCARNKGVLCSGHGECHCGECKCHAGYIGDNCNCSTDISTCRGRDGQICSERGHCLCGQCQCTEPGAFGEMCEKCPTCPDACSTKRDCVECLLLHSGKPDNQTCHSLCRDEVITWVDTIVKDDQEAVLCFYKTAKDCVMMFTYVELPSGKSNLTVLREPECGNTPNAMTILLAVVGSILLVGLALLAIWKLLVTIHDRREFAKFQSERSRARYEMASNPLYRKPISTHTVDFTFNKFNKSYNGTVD
Description: as §2, §3

[4] = tested on: Ch-1 cells; test: Detection of cell death in Ch-1 cells; type: cell-based, human; conditions: 0.8 μM, serum free medium, 24 hrs; type I collagen, fibronectin or Matrigel coated plates
Description: Cell Culture. Human Chondrosarcoma cell line (Ch-1) was isolated from a portion of chondrosarcoma tumor. The Ch-1 cell line was maintained in RPMI-1640 supplemented with 10% FBS and at 37° C. in a humidified, 5% CO2 atmosphere. Human chondrocytes were obtained from Dr. Davis Adkisson (ISTO Technologies, St. Louis) or isolated from macroscopically intact tissue obtained from total joint arthroplasty as described (Bassleer et al., 1998). HeLa 229 cells and MDA-MB 231 cell lines were provided by Dr. Kathy Weilbaecher (Washington University) and were cultured in RPMI medium supplemented with 10% FBS. HUVEC cells were a gift from Dr. William Frazier (Washington University) and were cultured in M199 Earle's medium with 10 units/ml of penicillin, 5 μg/ml streptomycin and 0.25 μg/ml Fungizone supplemented with 10% FBS, 0.1 mg/ml L-glutamine, 25 mM Hepes, 16 units/ml of heparin (Sigma) and 0.1 mg/ml endothelial cell mitogen (Biochemical Technologies).
Detection of Cell Death. Cells were cultured to confluence in a 24-well plate pre-coated with type I collagen, fibronectin (Sigma), and ECM Matrigel (Becton Dickinson). Proteins in serum-free medium were added to the cells. Cells were monitored by light microscopy and images were digitally photographed using a Q capture Retiga 2000R camera. Quantification of cells remaining in the well was performed by washing with PBS for three times, fixing with 4% paraformaldehyde. The cells per field (×400) were counted for three field per well (3 wells per measurement). The mean number and standard deviation (SD) were calculated.

[5] = tested on: HUVEC cells; test: HUVEC cell death; type: cell-based, human; conditions: 60 hrs, 37° C.; higher concentrations
Description: FIG. 6 depicts photographs and graphs showing that PIIBNP inhibits angiogenesis. […] Quantification of tube formation was calculated based on branch points per field of view (FIG. 6C) for each treatment ranging from 0.1 μM to 10 μM of PIIBNP. […] GST (▴) and PIIANP (●) had no effect on the cells.
As a second test for angiogenesis, we tested the ability of PIIBNP to inhibit outgrowth of endogenous endothelial cells from freshly isolated rat aorta. […] In order to determine whether PIIBNP caused endothelial cell death, the number of HUVEC cells present after incubation with PIIBNP was determined (FIGS. 6E and 8). Tube formation was inhibited by 50% with 0.1 μM PIIBNP, with no cell death. […] Consequently, PIIBNP can inhibit angiogenesis in a cell line and in endogenous endothelial cells mediated by integrins αVβ3 and αVβ5.

[6] = tested on: Ch-1 cells; test: Cell adhesion assay (Ch-1 cells on wells coated with recombinant proteins); type: cell-based, human; conditions: wells coated with recombinant protein
Description: as §1
Cell Culture. Human Chondrosarcoma cell line (Ch-1) was isolated from a portion of chondrosarcoma tumor (Chansky et al., J Orthop Res. (1998) 16(5):521-30). The Ch-1 cell line was maintained in RPMI-1640 supplemented with 10% FBS and at 37° C. in a humidified, 5% CO2 atmosphere.

GRADNP (listed as Homo sapiens) showed an inhibition of adhesion ([1]; at 60 μM) of about 50%.

For GRGDNP (listed as Homo sapiens), the inhibition of adhesion ([1]; at 10 μM) was 50% and the “compete and inhibit adhesion” value ([1]; synthetic peptides pre-incubated with cells) was “compete and inhibit adhesion”.

For “GST: Recombinant GST alone, control protein for the GST fusion proteins [reference compound]”, the “binding to integrin αVβ3” value [2] was “does not”, the “binding to integrin αVβ5” value [3] was “does not” and the “induction of cell death in Ch-1 cells” value [4] was “did not induce cell death”. The HUVEC cell death [5] was “no effect”.

In the case of “PIIBNPn: PIIBNP obtained by cleavage of GST from a GST-PIIBNP fusion protein with thrombin beads”, the “adhesion to Ch-1 cells” value [6] is reported as “strong binding”.
